Measurements published in PubChem BioAssay AID1963976 (Molecular Pharmacology Branch, DTP, NCI, 2024).
pIC50: −log10 of the molar value.

Tested on: 435261-313-R-J1-PDC tumor spheroid viability
Experiment: Anticancer human tumor 435261-313-R-J1-PDC patient-derived colon adenocarcinoma cell line growth inhibition [PI3K]
Settings: spheroids with HUVEC and MSC; for pIC50: curve of first compound; for viability, T/C: stronger effect = lower value
How it was run: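 Viability of mixed-cell spheroids was determined after exposure to pairwise combinations, one partner being inavolisib, alpelisib, duvelisib or copanlisib. Highest tested concentration matched clinical Cmax where known and 10 microM where not, descending in half-log steps.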

[1] = second compound 0.0316 µM, first compound 0.000316 µM
[2] = second compound 0.0316 µM, first compound 0.001 µM
[3] = second compound 0.0316 µM, first compound 0.00316 µM
[4] = second compound 0.0316 µM, first compound 0.01 µM
[5] = second compound 0.0316 µM, first compound 0.0316 µM
[6] = second compound 0.0316 µM, first compound 0.1 µM
[7] = second compound 0.1 µM, first compound 0.000316 µM
[8] = second compound 0.1 µM, first compound 0.001 µM
[9] = second compound 0.1 µM, first compound 0.00316 µM
[10] = second compound 0.1 µM, first compound 0.01 µM
[11] = second compound 0.1 µM, first compound 0.0316 µM
[12] = second compound 0.1 µM, first compound 0.1 µM
[13] = second compound 0.316 µM, first compound 0.000316 µM
[14] = second compound 0.316 µM, first compound 0.001 µM
[15] = second compound 0.316 µM, first compound 0.00316 µM
[16] = second compound 0.316 µM, first compound 0.01 µM
[17] = second compound 0.316 µM, first compound 0.0316 µM
[18] = second compound 0.316 µM, first compound 0.1 µM
[19] = second compound 1 µM, first compound 0.000316 µM
[20] = second compound 1 µM, first compound 0.001 µM
[21] = second compound 1 µM, first compound 0.00316 µM
[22] = second compound 1 µM, first compound 0.01 µM
[23] = second compound 1 µM, first compound 0.0316 µM
[24] = second compound 1 µM, first compound 0.1 µM
[25] = second compound 3.16 µM, first compound 0.000316 µM
[26] = second compound 3.16 µM, first compound 0.001 µM
[27] = second compound 3.16 µM, first compound 0.00316 µM
[28] = second compound 3.16 µM, first compound 0.01 µM
[29] = second compound 3.16 µM, first compound 0.0316 µM
[30] = second compound 3.16 µM, first compound 0.1 µM
[31] = second compound 10 µM, first compound 0.000316 µM
[32] = second compound 10 µM, first compound 0.001 µM
[33] = second compound 10 µM, first compound 0.00316 µM
[34] = second compound 10 µM, first compound 0.01 µM
[35] = second compound 10 µM, first compound 0.0316 µM
[36] = second compound 10 µM, first compound 0.1 µM
[37] = second compound 0.0316 µM, first compound 0.316 µM
[38] = second compound 0.0316 µM, first compound 1 µM
[39] = second compound 0.0316 µM, first compound 3.16 µM
[40] = second compound 0.0316 µM, first compound 10 µM
[41] = second compound 0.1 µM, first compound 0.316 µM
[42] = second compound 0.1 µM, first compound 1 µM
[43] = second compound 0.1 µM, first compound 3.16 µM
[44] = second compound 0.1 µM, first compound 10 µM
[45] = second compound 0.316 µM, first compound 0.316 µM
[46] = second compound 0.316 µM, first compound 1 µM
[47] = second compound 0.316 µM, first compound 3.16 µM
[48] = second compound 0.316 µM, first compound 10 µM
[49] = second compound 1 µM, first compound 0.316 µM
[50] = second compound 1 µM, first compound 1 µM
[51] = second compound 1 µM, first compound 3.16 µM
[52] = second compound 1 µM, first compound 10 µM
[53] = second compound 3.16 µM, first compound 0.316 µM
[54] = second compound 3.16 µM, first compound 1 µM
[55] = second compound 3.16 µM, first compound 3.16 µM
[56] = second compound 3.16 µM, first compound 10 µM
[57] = second compound 10 µM, first compound 0.316 µM
[58] = second compound 10 µM, first compound 1 µM
[59] = second compound 10 µM, first compound 3.16 µM
[60] = second compound 10 µM, first compound 10 µM
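Also: spheroids exposed to compounds for 7 days.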

`CC(C)n1nc(-c2ccc3oc(N)nc3c2)c2c(N)ncnc21` + Cc1nc(NC(=O)N2CCCC2C(N)=O)sc1-c1ccnc(C(C)(C)C(F)(F)F)c1 showed a pIC50 (second compound 0.0316 µM) of 7.58, a pIC50 (second compound 0.1 µM) of 7.69 and a pIC50 (second compound 0.316 µM) of 8.45. It also gave a pIC50 (second compound 1 µM) of over 9.50, a pIC50 (second compound 3.16 µM) of over 9.50 and a pIC50 (second compound 10 µM) of over 9.50. For the same compound, the viability, T/C [1] was 83.6%, the viability, T/C [2] was 93% and the viability, T/C [3] was 76.7%. It also gave a viability, T/C [4] of 47.9%, a viability, T/C [5] of 62% and a viability, T/C [6] of 13.6%. The viability, T/C [7] was 76.9%, the viability, T/C [8] was 71.1% and the viability, T/C [9] was 94.3%. For the same compound, the viability, T/C [10] was 65.6%, the viability, T/C [11] was 38.6% and the viability, T/C [12] was 15.4%. It also gave a viability, T/C [13] of 46.4%, a viability, T/C [14] of 67.7% and a viability, T/C [15] of 45.8%. It also gave a viability, T/C [16] of 40%, a viability, T/C [17] of 18.3% and a viability, T/C [18] of 12.8%. The viability, T/C [19] was 30.6%, the viability, T/C [20] was 30.5% and the viability, T/C [21] was 30.3%. The viability, T/C [22] was 20.2%, the viability, T/C [23] was 19.6% and the viability, T/C [24] was 9.5%. The viability, T/C [25] was 13.1%, the viability, T/C [26] was 23.9% and the viability, T/C [27] was 21.7%. For the same compound, the viability, T/C [28] was 19.1%, the viability, T/C [29] was 12.1% and the viability, T/C [30] was 7.83%. It also gave a viability, T/C [31] of 10.6%, a viability, T/C [32] of 10.1% and a viability, T/C [33] of 9.88%. It also gave a viability, T/C [34] of 8.69%, a viability, T/C [35] of 4.8% and a viability, T/C [36] of 4.03%.
With `CC1(C)CCC(CN2CCN(c3ccc(C(=O)NS(=O)(=O)c4ccc(NCC5CCOCC5)c([N+](=O)[O-])c4)c(Oc4cnc5[nH]ccc5c4)c3)CC2)=C(c2ccc(Cl)cc2)C1` + Cc1nc(NC(=O)N2CCCC2C(N)=O)sc1-c1ccnc(C(C)(C)C(F)(F)F)c1 the pIC50 (second compound 0.0316 µM) was 5.30, the pIC50 (second compound 0.1 µM) was 5.31 and the pIC50 (second compound 0.316 µM) was 5.45. It also gave a pIC50 (second compound 1 µM) of over 7.50, a pIC50 (second compound 3.16 µM) of over 7.50 and a pIC50 (second compound 10 µM) of over 7.50. For the same compound, the viability, T/C [5] was 50.2%, the viability, T/C [6] was 81.4% and the viability, T/C [37] was 78.5%. The viability, T/C [38] was 83%, the viability, T/C [39] was 95.5% and the viability, T/C [40] was 8.94%. It also gave a viability, T/C [11] of 51.2%, a viability, T/C [12] of 74.1% and a viability, T/C [41] of 93.8%. The viability, T/C [42] was 69.1%, the viability, T/C [43] was 90.8% and the viability, T/C [44] was 8.73%. It also gave a viability, T/C [17] of 50.5%, a viability, T/C [18] of 57.7% and a viability, T/C [45] of 44%. It also gave a viability, T/C [46] of 61.1%, a viability, T/C [47] of 58.6% and a viability, T/C [48] of 9.2%. It also gave a viability, T/C [23] of 26.7%, a viability, T/C [24] of 24.3% and a viability, T/C [49] of 27.9%. For the same compound, the viability, T/C [50] was 25.4%, the viability, T/C [51] was 22.6% and the viability, T/C [52] was 4.29%. For the same compound, the viability, T/C [29] was 16.6%, the viability, T/C [30] was 16.1% and the viability, T/C [53] was 13.4%. For the same compound, the viability, T/C [54] was 18.5%, the viability, T/C [55] was 18.1% and the viability, T/C [56] was 4.62%. The viability, T/C [35] was 9.42%, the viability, T/C [36] was 8.27% and the viability, T/C [57] was 7.16%. It also gave a viability, T/C [58] of 8.26%, a viability, T/C [59] of 8.41% and a viability, T/C [60] of 2.21%.
With `CCCS(=O)(=O)Nc1ccc(F)c(C(=O)c2c[nH]c3ncc(-c4ccc(Cl)cc4)cc23)c1F` + Cc1nc(NC(=O)N2CCCC2C(N)=O)sc1-c1ccnc(C(C)(C)C(F)(F)F)c1 the pIC50 (second compound 0.0316 µM) was 5.29, the pIC50 (second compound 0.1 µM) was 5.31 and the pIC50 (second compound 0.316 µM) was 5.36. It also gave a pIC50 (second compound 1 µM) of 7.50, a pIC50 (second compound 3.16 µM) of over 7.50 and a pIC50 (second compound 10 µM) of over 7.50. The viability, T/C [5] was 68.7%, the viability, T/C [6] was 117% and the viability, T/C [37] was 121%. It also gave a viability, T/C [38] of 107%, a viability, T/C [39] of 83% and a viability, T/C [40] of 5.07%. The viability, T/C [11] was 78.3%, the viability, T/C [12] was 95.7% and the viability, T/C [41] was 104%. The viability, T/C [42] was 83.9%, the viability, T/C [43] was 77% and the viability, T/C [44] was 6.18%. For the same compound, the viability, T/C [17] was 57.6%, the viability, T/C [18] was 78% and the viability, T/C [45] was 70.4%. The viability, T/C [46] was 64.5%, the viability, T/C [47] was 67.8% and the viability, T/C [48] was 4.86%. For the same compound, the viability, T/C [23] was 25.2%, the viability, T/C [24] was 37.8% and the viability, T/C [49] was 73.2%. It also gave a viability, T/C [50] of 59.3%, a viability, T/C [51] of 38.3% and a viability, T/C [52] of 4.97%. It also gave a viability, T/C [29] of 17.6%, a viability, T/C [30] of 21.1% and a viability, T/C [53] of 32.8%. For the same compound, the viability, T/C [54] was 35.9%, the viability, T/C [55] was 24.6% and the viability, T/C [56] was 4.64%. It also gave a viability, T/C [35] of 11.3%, a viability, T/C [36] of 12.2% and a viability, T/C [57] of 14.2%. It also gave a viability, T/C [58] of 15.7%, a viability, T/C [59] of 14.9% and a viability, T/C [60] of 1.88%.
Work on `Cn1ncnc1[C@H]1c2n[nH]c(=O)c3cc(F)cc(c23)N[C@@H]1c1ccc(F)cc1` + Cc1nc(NC(=O)N2CCCC2C(N)=O)sc1-c1ccnc(C(C)(C)C(F)(F)F)c1 yielded a pIC50 (second compound 0.0316 µM) of under 7.00, a pIC50 (second compound 0.1 µM) of under 7.00 and a pIC50 (second compound 0.316 µM) of 8.21. It also gave a pIC50 (second compound 1 µM) of over 9.50, a pIC50 (second compound 3.16 µM) of over 9.50 and a pIC50 (second compound 10 µM) of over 9.50. For the same compound, the viability, T/C [1] was 81.6%, the viability, T/C [2] was 65% and the viability, T/C [3] was 79.8%. It also gave a viability, T/C [4] of 77.1%, a viability, T/C [5] of 79.1% and a viability, T/C [6] of 66.4%. For the same compound, the viability, T/C [7] was 63%, the viability, T/C [8] was 93.9% and the viability, T/C [9] was 65.5%. It also gave a viability, T/C [10] of 64.8%, a viability, T/C [11] of 66.4% and a viability, T/C [12] of 56.3%. For the same compound, the viability, T/C [13] was 35.8%, the viability, T/C [14] was 62.8% and the viability, T/C [15] was 49.4%. It also gave a viability, T/C [16] of 59.8%, a viability, T/C [17] of 39.4% and a viability, T/C [18] of 36.6%. The viability, T/C [19] was 36.5%, the viability, T/C [20] was 29.8% and the viability, T/C [21] was 24.6%. The viability, T/C [22] was 30.5%, the viability, T/C [23] was 26.9% and the viability, T/C [24] was 22.8%. For the same compound, the viability, T/C [25] was 16.4%, the viability, T/C [26] was 21.4% and the viability, T/C [27] was 17.5%. For the same compound, the viability, T/C [28] was 18.5%, the viability, T/C [29] was 18.4% and the viability, T/C [30] was 16.7%. For the same compound, the viability, T/C [31] was 10.5%, the viability, T/C [32] was 9.23% and the viability, T/C [33] was 7.91%. The viability, T/C [34] was 9.55%, the viability, T/C [35] was 9% and the viability, T/C [36] was 7.58%.
